Species: Rattus norvegicus
Test: DrugMatrix - Regimen: Daily Repeat
Assay type: toxicity, organism-based, Sprague-Dawley
Design: regimen Daily Repeat, gender Male, age 6-8 weeks
Conditions: in vivo, po, route oral GAVAGE, vehicle .5 % CMC; for ABSOLUTE BASOPHIL / ABSOLUTE EOSINOPHIL / ABSOLUTE LYMPHOCYTE / ABSOLUTE MONOCYTE / ABSOLUTE SEGMENTED NEUTROPHIL / BASOPHIL / EOSINOPHIL / ERYTHROCYTE COUNT / HEMATOCRIT / HEMOGLOBIN / LEUKOCYTE COUNT / LYMPHOCYTE / MEAN CORPUSCULAR HEMOGLOBIN / MEAN CORPUSCULAR HEMOGLOBIN CONCENTRATION / MEAN CORPUSCULAR VOLUME / MONOCYTE / NEUTROPHIL / NUCLEATED RED BLOOD CELLS / PLATELET COUNT: tissue Blood; for ALANINE AMINOTRANSFERASE / ALBUMIN / ALKALINE PHOSPHATASE / ASPARTATE AMINOTRANSFERASE / BLOOD UREA NITROGEN / CARBON DIOXIDE / CHLORIDE / CHOLESTEROL / CREATINE PHOSPHOKINASE / CREATININE / GLUCOSE / LACTATE DEHYDROGENASE / LIPASE / PHOSPHORUS / POTASSIUM / SODIUM / TOTAL BILIRUBIN / TOTAL PROTEIN / URIC ACID: tissue Plasma
[1] = 50 mg/kg, 72 h, dose level Low, time 3 day
[2] = 50 mg/kg, 120 h, dose level Low, time 5 day
[3] = 350 mg/kg, 72 h, dose level High, time 3 day
[4] = 350 mg/kg, 120 h, dose level High, time 5 day

Structure (SMILES): Cc1cccc(C)c1OCC(C)N (configuration not stated) [MEXILETINE]
- ABSOLUTE BASOPHIL [1]: 0 CELLS/uL
- ABSOLUTE EOSINOPHIL [1]: 76.67 CELLS/uL
- ABSOLUTE LYMPHOCYTE [1]: 11625.67 CELLS/uL
- ABSOLUTE MONOCYTE [1]: 164.33 CELLS/uL
- ABSOLUTE SEGMENTED NEUTROPHIL [1]: 733.33 CELLS/uL
- BASOPHIL [1]: 0%
- EOSINOPHIL [1]: 0.67%
- ERYTHROCYTE COUNT [1]: 5.83 x10E6/uL
- HEMATOCRIT [1]: 36.67%
- HEMOGLOBIN [1]: 13.2 G/DL
- LEUKOCYTE COUNT [1]: 12.6 x10E3/uL
- LYMPHOCYTE [1]: 92.33%
- MEAN CORPUSCULAR HEMOGLOBIN [1]: 22.63 pg
- MEAN CORPUSCULAR HEMOGLOBIN CONCENTRATION [1]: 36 G/DL
- MEAN CORPUSCULAR VOLUME [1]: 62.9 fL
- MONOCYTE [1]: 1.33%
- NEUTROPHIL [1]: 5.67%
- NUCLEATED RED BLOOD CELLS [1]: 0 /100WBC
- PLATELET COUNT [1]: 1579.67 x10E3/uL
- ALANINE AMINOTRANSFERASE [1]: 39.67 u/L
- ALBUMIN [1]: 4.47 G/DL
- ALKALINE PHOSPHATASE [1]: 347.33 u/L
- ASPARTATE AMINOTRANSFERASE [1]: 70.33 u/L
- BLOOD UREA NITROGEN [1]: 15 mg/dL
- CARBON DIOXIDE [1]: 26.67 mmol/L
- CHLORIDE [1]: 103.33 MEQ/L
- CHOLESTEROL [1]: 73 mg/dL
- CREATINE PHOSPHOKINASE [1]: 249.33 u/L
- CREATININE [1]: 0.18 mg/dL
- GLUCOSE [1]: 168.67 mg/dL
- LACTATE DEHYDROGENASE [1]: 90 u/L
- LIPASE [1]: 9 u/L
- PHOSPHORUS [1]: 13.23 mg/dL
- POTASSIUM [1]: 6.67 MEQ/L
- SODIUM [1]: 144.43 MEQ/L
- TOTAL BILIRUBIN [1]: 0.2 mg/dL
- TOTAL PROTEIN [1]: 6 G/DL
- URIC ACID [1]: 2.37 mg/dL
- ABSOLUTE BASOPHIL [2]: 0 CELLS/uL
- ABSOLUTE EOSINOPHIL [2]: 311.67 CELLS/uL
- ABSOLUTE LYMPHOCYTE [2]: 17277 CELLS/uL
- ABSOLUTE MONOCYTE [2]: 358.33 CELLS/uL
- ABSOLUTE SEGMENTED NEUTROPHIL [2]: 1686.33 CELLS/uL
- BASOPHIL [2]: 0%
- EOSINOPHIL [2]: 1.67%
- ERYTHROCYTE COUNT [2]: 5.61 x10E6/uL
- HEMATOCRIT [2]: 35.37%
- HEMOGLOBIN [2]: 13.43 G/DL
- LEUKOCYTE COUNT [2]: 19.63 x10E3/uL
- LYMPHOCYTE [2]: 88%
- MEAN CORPUSCULAR HEMOGLOBIN [2]: 23.97 pg
- MEAN CORPUSCULAR HEMOGLOBIN CONCENTRATION [2]: 38 G/DL
- MEAN CORPUSCULAR VOLUME [2]: 63.13 fL
- MONOCYTE [2]: 1.67%
- NEUTROPHIL [2]: 8.67%
- NUCLEATED RED BLOOD CELLS [2]: 0 /100WBC
- PLATELET COUNT [2]: 1342.33 x10E3/uL
- ALANINE AMINOTRANSFERASE [2]: 52 u/L
- ALBUMIN [2]: 4.23 G/DL
- ALKALINE PHOSPHATASE [2]: 414.33 u/L
- ASPARTATE AMINOTRANSFERASE [2]: 89 u/L
- BLOOD UREA NITROGEN [2]: 18.67 mg/dL
- CARBON DIOXIDE [2]: 24.33 mmol/L
- CHLORIDE [2]: 106.67 MEQ/L
- CHOLESTEROL [2]: 62 mg/dL
- CREATINE PHOSPHOKINASE [2]: 325.67 u/L
- CREATININE [2]: 0.19 mg/dL
- GLUCOSE [2]: 163.67 mg/dL
- LACTATE DEHYDROGENASE [2]: 469 u/L
- LIPASE [2]: 8.67 u/L
- PHOSPHORUS [2]: 12.77 mg/dL
- POTASSIUM [2]: 6.24 MEQ/L
- SODIUM [2]: 144.53 MEQ/L
- TOTAL BILIRUBIN [2]: 0.3 mg/dL
- TOTAL PROTEIN [2]: 6.4 G/DL
- URIC ACID [2]: 1.83 mg/dL
- ABSOLUTE BASOPHIL [3]: 0 CELLS/uL
- ABSOLUTE EOSINOPHIL [3]: 77.33 CELLS/uL
- ABSOLUTE LYMPHOCYTE [3]: 8910.33 CELLS/uL
- ABSOLUTE MONOCYTE [3]: 236 CELLS/uL
- ABSOLUTE SEGMENTED NEUTROPHIL [3]: 643 CELLS/uL
- BASOPHIL [3]: 0%
- EOSINOPHIL [3]: 0.67%
- ERYTHROCYTE COUNT [3]: 6.04 x10E6/uL
- HEMATOCRIT [3]: 38.2%
- HEMOGLOBIN [3]: 14.37 G/DL
- LEUKOCYTE COUNT [3]: 9.87 x10E3/uL
- LYMPHOCYTE [3]: 90.33%
- MEAN CORPUSCULAR HEMOGLOBIN [3]: 23.87 pg
- MEAN CORPUSCULAR HEMOGLOBIN CONCENTRATION [3]: 37.63 G/DL
- MEAN CORPUSCULAR VOLUME [3]: 63.37 fL
- MONOCYTE [3]: 2.33%
- NEUTROPHIL [3]: 6.67%
- NUCLEATED RED BLOOD CELLS [3]: 0.33 /100WBC
- PLATELET COUNT [3]: 1205.33 x10E3/uL
- ALANINE AMINOTRANSFERASE [3]: 60.67 u/L
- ALBUMIN [3]: 5.13 G/DL
- ALKALINE PHOSPHATASE [3]: 464.67 u/L
- ASPARTATE AMINOTRANSFERASE [3]: 73.67 u/L
- BLOOD UREA NITROGEN [3]: 13 mg/dL
- CARBON DIOXIDE [3]: 27.33 mmol/L
- CHLORIDE [3]: 102 MEQ/L
- CHOLESTEROL [3]: 86 mg/dL
- CREATINE PHOSPHOKINASE [3]: 277.67 u/L
- CREATININE [3]: 0.21 mg/dL
- GLUCOSE [3]: 139.67 mg/dL
- LACTATE DEHYDROGENASE [3]: 118 u/L
- LIPASE [3]: 9 u/L
- PHOSPHORUS [3]: 10.8 mg/dL
- POTASSIUM [3]: 5.61 MEQ/L
- SODIUM [3]: 145.8 MEQ/L
- TOTAL BILIRUBIN [3]: 0.23 mg/dL
- TOTAL PROTEIN [3]: 7.07 G/DL
- URIC ACID [3]: 0.77 mg/dL
- ABSOLUTE BASOPHIL [4]: 0 CELLS/uL
- ABSOLUTE EOSINOPHIL [4]: 203 CELLS/uL
- ABSOLUTE LYMPHOCYTE [4]: 12514 CELLS/uL
- ABSOLUTE MONOCYTE [4]: 136 CELLS/uL
- ABSOLUTE SEGMENTED NEUTROPHIL [4]: 747 CELLS/uL
- BASOPHIL [4]: 0%
- EOSINOPHIL [4]: 1.5%
- ERYTHROCYTE COUNT [4]: 6.13 x10E6/uL
- HEMATOCRIT [4]: 38%
- HEMOGLOBIN [4]: 14.05 G/DL
- LEUKOCYTE COUNT [4]: 13.6 x10E3/uL
- LYMPHOCYTE [4]: 92%
- MEAN CORPUSCULAR HEMOGLOBIN [4]: 22.9 pg
- MEAN CORPUSCULAR HEMOGLOBIN CONCENTRATION [4]: 37 G/DL
- MEAN CORPUSCULAR VOLUME [4]: 62.05 fL
- MONOCYTE [4]: 1%
- NEUTROPHIL [4]: 5.5%
- NUCLEATED RED BLOOD CELLS [4]: 0 /100WBC
- PLATELET COUNT [4]: 1422.5 x10E3/uL
- ALANINE AMINOTRANSFERASE [4]: 55 u/L
- ALBUMIN [4]: 4.35 G/DL
- ALKALINE PHOSPHATASE [4]: 464 u/L
- ASPARTATE AMINOTRANSFERASE [4]: 93.5 u/L
- BLOOD UREA NITROGEN [4]: 15 mg/dL
- CARBON DIOXIDE [4]: 24 mmol/L
- CHLORIDE [4]: 105 MEQ/L
- CHOLESTEROL [4]: 59 mg/dL
- CREATINE PHOSPHOKINASE [4]: 283.5 u/L
- CREATININE [4]: 0.22 mg/dL
- GLUCOSE [4]: 182.5 mg/dL
- LACTATE DEHYDROGENASE [4]: 152 u/L
- LIPASE [4]: 8.5 u/L
- PHOSPHORUS [4]: 12.7 mg/dL
- POTASSIUM [4]: 5.83 MEQ/L
- SODIUM [4]: 145.35 MEQ/L
- TOTAL BILIRUBIN [4]: 0.2 mg/dL
- TOTAL PROTEIN [4]: 6.4 G/DL
- URIC ACID [4]: 2 mg/dL

From ChEMBL document CHEMBL3885881, “DrugMatrix”
